The results in this text go back to patent publication US9187497B2, “Substituted pyrido[3,2-e]pyrrolo[1,2-a]pyrazines as inhibitors of poly(ADP-ribose)polymerase (PARP)” (Takeda Phamaceutical Company Limited, priority 2009, dated 2015).

One assay has as its target T1, PARP (Homo sapiens, UniProt P09874).
T1 construct: purchased Trevigen 4684-096-01 (enzyme); kit 4684-096-K HT
Description: PARP ELISA colorimetric assay of inhibition of PARP catalytic activity (IC50). It counts as biochemical. The conditions noted are these: pIC50=-log(IC50), IC50 in molar concentration; ELISA-based PARP kit, 10 minutes of catalysis. In a few lines: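 Human PARP was added as a 0.1 nM solution to histone-coated wells with compound for a 10-min ambient preincubation. The reaction was started with 100 μM NAD+ solution plus activated DNA and run 10 min. PAR formation was detected by anti-PAR ELISA, colorimetric. IC50 came from a 12-point, 3-fold gradient fitted by nonlinear least squares to a Hill equation.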
For orientation: In an ELISA, binding on a coated surface is turned into a signal by an enzyme label.

In a further assay the test system is Jurkat cell line. Put plainly: PARP cellular chemopotentiation assay (MTS cell viability with and without TMZ). The conditions noted are these: ratio of EC50 for inhibition of cell viability without and with 100 μM TMZ; Jurkat cells, 96 hours of treatment. It is filed as cell-based. In a few lines: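 Jurkat cells, 10,000/well, pre-cultured 24 h, then treated 96 h with serial compound dilutions (0.5% DMSO) with or without 100 μM TMZ. Viability by MTS conversion (OD490), normalized to DMSO controls; EC50 from curve fits, PF50 = EC50 without TMZ / EC50 with TMZ.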

T1 sequence (P09874 whole entry): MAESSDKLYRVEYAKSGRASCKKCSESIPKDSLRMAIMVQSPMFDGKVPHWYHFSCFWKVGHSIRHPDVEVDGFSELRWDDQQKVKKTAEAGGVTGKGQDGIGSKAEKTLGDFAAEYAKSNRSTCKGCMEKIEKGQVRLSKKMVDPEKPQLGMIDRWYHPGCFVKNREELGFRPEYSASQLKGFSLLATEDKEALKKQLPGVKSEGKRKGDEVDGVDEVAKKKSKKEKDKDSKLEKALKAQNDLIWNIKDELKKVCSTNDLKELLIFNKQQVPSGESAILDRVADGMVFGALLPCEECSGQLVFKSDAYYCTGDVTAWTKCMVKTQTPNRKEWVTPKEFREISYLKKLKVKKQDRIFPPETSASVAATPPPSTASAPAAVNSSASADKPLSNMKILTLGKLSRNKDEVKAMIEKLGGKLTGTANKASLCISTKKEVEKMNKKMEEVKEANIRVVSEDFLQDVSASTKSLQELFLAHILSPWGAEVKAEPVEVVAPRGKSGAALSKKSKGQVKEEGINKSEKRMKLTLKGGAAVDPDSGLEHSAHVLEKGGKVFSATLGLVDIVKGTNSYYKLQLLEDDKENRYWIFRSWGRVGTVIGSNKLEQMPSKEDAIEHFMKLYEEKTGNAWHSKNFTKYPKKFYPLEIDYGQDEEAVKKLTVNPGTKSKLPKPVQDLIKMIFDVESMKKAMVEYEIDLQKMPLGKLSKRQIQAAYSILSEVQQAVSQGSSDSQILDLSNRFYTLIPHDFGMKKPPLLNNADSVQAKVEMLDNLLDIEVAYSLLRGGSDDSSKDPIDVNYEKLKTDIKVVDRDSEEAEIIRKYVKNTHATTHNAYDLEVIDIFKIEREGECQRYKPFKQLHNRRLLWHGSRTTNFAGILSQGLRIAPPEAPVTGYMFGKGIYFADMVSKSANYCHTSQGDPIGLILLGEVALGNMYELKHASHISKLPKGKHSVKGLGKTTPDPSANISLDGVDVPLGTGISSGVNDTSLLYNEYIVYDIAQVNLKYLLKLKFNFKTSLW

For `CCNC(=O)c1ccc(N2CCN(Cc3cnc4c(c3)NC(=O)[C@@H]3CCCCN43)CC2)c(Cl)c1` [Compound 110, (S)-3-chloro-N-ethyl-4-(4-((6-oxo-6,6a,7,8,9,10-hexahydro-5H-dipyrido[1,2-a:3′,2′-e]pyrazin-3-yl)methyl)piperazin-1-yl)benzamide], the IC50 against PARP was 0.0158 to 0.0398 µM. Moreover, the PF50 with Jurkat cell line is recorded as above 5000.

In turn, `CNC(=O)c1ccc(N2CCN(Cc3cnc4c(c3)NC(=O)[C@@H]3CCCCN43)CC2)c(Cl)c1` [Compound 111, (S)-3-chloro-N-methyl-4-(4-((6-oxo-6,6a,7,8,9,10-hexahydro-5H-dipyrido[1,2-a:3′,2′-e]pyrazin-3-yl)methyl)piperazin-1-yl)benzamide] had an IC50 at PARP of 0.0158 to 0.0398 µM. Also, the PF50 in the assay with Jurkat cell line was above 5000.

For `CNC(=O)c1ccc(N2CCN(Cc3cnc4c(c3)NC(=O)[C@@H]3CCCCN43)CC2)c(F)c1` [Compound 112, (S)-3-fluoro-N-methyl-4-(4-((6-oxo-6,6a,7,8,9,10-hexahydro-5H-dipyrido[1,2-a:3′,2′-e]pyrazin-3-yl)methyl)piperazin-1-yl)benzamide], on PARP, the IC50 is at most 0.0126 µM. In the assay with Jurkat cell line, the PF50 was above 10.

On PARP, `CNC(=O)c1ccc(N2CCN(Cc3cnc4c(c3)NC(=O)[C@@H]3CCCCN43)CC2)c(C)c1` [Compound 113, (S)—N,3-dimethyl-4-(4-((6-oxo-6,6a,7,8,9,10-hexahydro-5H-dipyrido[1,2-a:3′,2′-e]pyrazin-3-yl)methyl)piperazin-1-yl)benzamide] showed an IC50 of at least 0.0501 µM. Besides, the PF50 in the assay with Jurkat cell line is above 2000.

`CCNC(=O)c1ccc(N2CCN(Cc3cnc4c(c3)NC(=O)[C@@H]3CCCCN43)CC2)c(C)c1` [Compound 114, (S)—N-ethyl-3-methyl-4-(4-((6-oxo-6,6a,7,8,9,10-hexahydro-5H-dipyrido[1,2-a:3′,2′-e]pyrazin-3-yl)methyl)piperazin-1-yl)benzamide] had an IC50 at PARP of at least 0.0501 µM. In addition, the PF50 in the assay on Jurkat cell line is reported as above 2000.

The compound `Cc1cc(C(=O)NC2CC2)ccc1N1CCN(Cc2cnc3c(c2)NC(=O)[C@@H]2CCCCN32)CC1` [Compound 115, (S)—N-cyclopropyl-3-methyl-4-(4-((6-oxo-6,6a,7,8,9,10-hexahydro-5H-dipyrido[1,2-a:3′,2′-e]pyrazin-3-yl)methyl)piperazin-1-yl)benzamide] gave an IC50 against PARP of 0.0158 to 0.0398 µM. The PF50 with Jurkat cell line is recorded as above 2000.

With `O=C(NC1CC1)c1ccc(N2CCN(Cc3cnc4c(c3)NC(=O)[C@@H]3CCCCN43)CC2)c(F)c1` [Compound 116, (S)—N-cyclopropyl-3-fluoro-4-(4-((6-oxo-6,6a,7,8,9,10-hexahydro-5H-dipyrido[1,2-a:3′,2′-e]pyrazin-3-yl)methyl)piperazin-1-yl)benzamide], on PARP, the IC50 was at most 0.0126 µM. Besides, in the assay with Jurkat cell line, the PF50 is given as above 5000.

The compound `O=C(NC1CC1)c1ccc(N2CCN(Cc3cnc4c(c3)NC(=O)[C@@H]3CCCCN43)CC2)c(Cl)c1` [Compound 117, (S)-3-chloro-N-cyclopropyl-4-(4-((6-oxo-6,6a,7,8,9,10-hexahydro-5H-dipyrido[1,2-a:3′,2′-e]pyrazin-3-yl)methyl)piperazin-1-yl)benzamide] had an IC50 against PARP of 0.0158 to 0.0398 µM. The PF50 with Jurkat cell line is given as above 5000.

`COc1cc(C#N)ccc1N1CCN(Cc2cnc3c(c2)NC(=O)[C@@H]2CCCCN32)CC1` [Compound 118, (S)-3-methoxy-4-(4-((6-oxo-6,6a,7,8,9,10-hexahydro-5H-dipyrido[1,2-a:3′,2′-e]pyrazin-3-yl)methyl)piperazin-1-yl)benzonitrile] showed an IC50 on PARP of at most 0.0126 µM. Also, the PF50 in the assay with Jurkat cell line is above 5000.

The compound `CC1CN(c2ccccn2)CCN1Cc1cnc2c(c1)NC(=O)[C@@H]1CCCN21` (stereo partly drawn) [Compound 120, (6aS)-3-((2-methyl-4-(pyridin-2-yl)piperazin-1-yl)methyl)-6a,7,8,9-tetrahydropyrido[3,2-e]pyrrolo[1,2-a]pyrazin-6(5H)-one] had an IC50 against PARP of at least 0.0501 µM. The PF50 entry in the assay with Jurkat cell line is “≧0”.

As for `O=C1Nc2cc(CC3CCN(c4ccc(Cl)cc4)CC3)cnc2N2CCC[C@@H]12` [Compound 122, (S)-3-((1-(4-chlorophenyl)piperidin-4-yl)methyl)-6a,7,8,9-tetrahydropyrido[3,2-e]pyrrolo[1,2-a]pyrazin-6(5H)-one], the IC50 on PARP was at least 0.0501 µM. In the assay with Jurkat cell line, the PF50 entry is listed as “≧0”.

`N#Cc1ccc(N2CCN(Cc3cnc4c(c3)NC(=O)[C@@H]3CCCN43)CC2)cn1` [Compound 123, (S)-5-(4-((6-oxo-5,6,6a,7,8,9-hexahydropyrido[3,2-e]pyrrolo[1,2-a]pyrazin-3-yl)methyl)piperazin-1-yl)picolinonitrile] had an IC50 at PARP of 0.0158 to 0.0398 µM. In the assay on Jurkat cell line, the PF50 is above 10.

Take `CCNC(=O)c1cc(F)c(N2CCN(Cc3cnc4c(c3)NC(=O)[C@@H]3CCCN43)CC2)cc1F` [Compound 124, (S)—N-ethyl-2,5-difluoro-4-(4-((6-oxo-5,6,6a,7,8,9-hexahydropyrido[3,2-e]pyrrolo[1,2-a]pyrazin-3-yl)methyl)piperazin-1-yl)benzamide]: the IC50 on PARP was at least 0.0501 µM. Further, the PF50 result in the assay on Jurkat cell line was “≧0”.

For `CCNC(=O)c1ccc(N2CCN(Cc3cnc4c(c3)NC(=O)[C@@H]3CCCN43)CC2)cc1F` [Compound 125, (S)—N-ethyl-2-fluoro-4-(4-((6-oxo-5,6,6a,7,8,9-hexahydropyrido[3,2-e]pyrrolo[1,2-a]pyrazin-3-yl)methyl)piperazin-1-yl)benzamide], the IC50 against PARP is at least 0.0501 µM. Besides, the PF50 entry with Jurkat cell line is “≧0”.

Turning to `CCNC(=O)c1ccc(N2CCN(Cc3cnc4c(c3)NC(=O)[C@@H]3CCCN43)CC2)c(F)c1` [Compound 126, (S)—N-ethyl-3-fluoro-4-(4-((6-oxo-5,6,6a,7,8,9-hexahydropyrido[3,2-e]pyrrolo[1,2-a]pyrazin-3-yl)methyl)piperazin-1-yl)benzamide], the IC50 at PARP was 0.0158 to 0.0398 µM. Further, the PF50 in the assay on Jurkat cell line was above 5000.

Consider `CCNC(=O)c1ccc(N2CCN(Cc3cnc4c(c3)NC(=O)[C@@H]3CCCN43)CC2)c(Cl)c1` [Compound 127, (S)-3-chloro-N-ethyl-4-(4-((6-oxo-5,6,6a,7,8,9-hexahydropyrido[3,2-e]pyrrolo[1,2-a]pyrazin-3-yl)methyl)piperazin-1-yl)benzamide], for which the IC50 against PARP was 0.0158 to 0.0398 µM. The PF50 with Jurkat cell line is on record as above 500.

Regarding `CNS(=O)(=O)c1ccc(N2CCN(Cc3cnc4c(c3)NC(=O)[C@@H]3CCCN43)CC2)cc1` [Compound 128, (S)—N-methyl-4-(4-((6-oxo-5,6,6a,7,8,9-hexahydropyrido[3,2-e]pyrrolo[1,2-a]pyrazin-3-yl)methyl)piperazin-1-yl)benzenesulfonamide], the IC50 on PARP was at least 0.0501 µM. Besides, the PF50 entry with Jurkat cell line was “≧0”.

For the compound `Cc1cc(C#N)ccc1N1CCN(Cc2cnc3c(c2)NC(=O)[C@@H]2CCCN32)CC1` [Compound 129, (S)-3-methyl-4-(4-((6-oxo-5,6,6a,7,8,9-hexahydropyrido[3,2-e]pyrrolo[1,2-a]pyrazin-3-yl)methyl)piperazin-1-yl)benzonitrile], the IC50 at PARP is 0.0158 to 0.0398 µM. For the same compound, the PF50 in the assay on Jurkat cell line was above 500.

In turn, `Cc1cc(F)ccc1N1CCN(Cc2cnc3c(c2)NC(=O)[C@@H]2CCCN32)CC1` [Compound 130, (S)-3-((4-(4-fluoro-2-methylphenyl)piperazin-1-yl)methyl)-6a,7,8,9-tetrahydropyrido[3,2-e]pyrrolo[1,2-a]pyrazin-6(5H)-one] had an IC50 against PARP of 0.0158 to 0.0398 µM. For the same compound, in the assay on Jurkat cell line, the PF50 was above 2000.

On to `CNC(=O)c1ccc(N2CCN(Cc3cnc4c(c3)NC(=O)[C@@H]3CCCN43)CC2)c(F)c1` [Compound 131, (S)-3-fluoro-N-methyl-4-(4-((6-oxo-5,6,6a,7,8,9-hexahydropyrido[3,2-e]pyrrolo[1,2-a]pyrazin-3-yl)methyl)piperazin-1-yl)benzamide], for which the IC50 on PARP is at most 0.0126 µM. Besides, in the assay on Jurkat cell line, the PF50 was above 500.

The compound `O=C(NC1CC1)c1ccc(N2CCN(Cc3cnc4c(c3)NC(=O)[C@@H]3CCCN43)CC2)c(F)c1` [Compound 132, (S)—N-cyclopropyl-3-fluoro-4-(4-((6-oxo-5,6,6a,7,8,9-hexahydropyrido[3,2-e]pyrrolo[1,2-a]pyrazin-3-yl)methyl)piperazin-1-yl)benzamide] had an IC50 at PARP of at most 0.0126 µM. The PF50 in the assay with Jurkat cell line was above 2000.

In turn, `CC(C)NC(=O)c1ccc(N2CCN(Cc3cnc4c(c3)NC(=O)[C@@H]3CCCN43)CC2)c(F)c1` [Compound 133, (S)-3-fluoro-N-isopropyl-4-(4-((6-oxo-5,6,6a,7,8,9-hexahydropyrido[3,2-e]pyrrolo[1,2-a]pyrazin-3-yl)methyl)piperazin-1-yl)benzamide] gave an IC50 against PARP of 0.0158 to 0.0398 µM. Moreover, in the assay with Jurkat cell line, the PF50 was above 2000.

Consider `O=C(NC1CC1)c1ccc(N2CCN(Cc3cnc4c(c3)NC(=O)[C@@H]3CCCN43)CC2)c(Cl)c1` [Compound 134, (S)-3-chloro-N-cyclopropyl-4-(4-((6-oxo-5,6,6a,7,8,9-hexahydropyrido[3,2-e]pyrrolo[1,2-a]pyrazin-3-yl)methyl)piperazin-1-yl)benzamide], for which the IC50 at PARP is 0.0158 to 0.0398 µM. Further, the PF50 in the assay on Jurkat cell line is given as above 5000.

`CC(C)NC(=O)c1ccc(N2CCN(Cc3cnc4c(c3)NC(=O)[C@@H]3CCCN43)CC2)c(Cl)c1` [Compound 135, (S)-3-chloro-N-isopropyl-4-(4-((6-oxo-5,6,6a,7,8,9-hexahydropyrido[3,2-e]pyrrolo[1,2-a]pyrazin-3-yl)methyl)piperazin-1-yl)benzamide] had an IC50 against PARP of 0.0158 to 0.0398 µM. For the same compound, the PF50 with Jurkat cell line is reported as above 5000.

For orientation: IC50 means the concentration at which inhibition is half-maximal. Low readings indicate higher potency, high ones lower potency.
